pIC50: −log10 of the molar value.
How the values were obtained:
PLK1 [1] = molecular target: T1, PLK1 (Homo sapiens, UniProt P53350); assay: Cellular PLK1 assay in K562 cells overexpressing CDC25C; type: cell-based; design: endogenous in cells; host or cells: K562 (human chronic myelogenous leukemia) overexpressing CDC25C, nocodazole-arrested; settings: nocodazole arrested, cdc25c p-Ser198 readout
Description: Inhibition of PLK1 was measured by quantifying phosphorylation of PLK1 substrates using chemiluminescent and fluorogenic probes. The protocols for these assays are provided below.
1. Culturing of K562 Cells
Human chronic myelogenous leukemia K562 cells (American Tissue Culture Collection) overexpressing CDC25C, were grown in Growth Medium having the following composition: Iscove Dulbecco's Modified Eagle's Medium (“Iscove DMEM”, Mediatech/Cellgro, Cat. #10-013-CV), 10% Fetal Bovine Serum (“FBS”, SAFC Biosciences, Cat. #12106-500M), and 1% penicillin/streptomycin (“pen-strep”, Mediatech/Cellgro, Cat. #30-002-CI). The cells were plated in 96 well round bottom tissue culture plates (Fisher, Costar* Cell Culture plates, Cat. #07-200-95) at 100,000 cells per 50 μL of Growth Medium per well. Nocodazole (Sigma, Cat. # M1404) was added to the growth media to arrest the cells in the G2 or M phase, at 333 nM concentration. The cells were incubated with nocodazole for 18 hours at 37° C. prior to addition of tested compounds.
2. Treatment of Cells with the Tested Compounds
Solutions of tested compounds in DMSO at different concentrations were prepared using serial dilutions. Each compound was tested at 8 concentration points, 10 μM, 3.3 μM, 1.11 μM, 0.37 μM, 0.12 μM, 0.04 μM, 0.014 μM, 0.005 μM, duplicate replicates.
Two controls were performed: “DMSO alone” control in which nocodazole and DMSO were present but no compounds were added, and “nocodazole alone” control, in which only nocodazole was present, but neither DMSO nor compounds were added.
The solutions of compounds were prepared by diluting 10 mM compound 1:1 in DMSO (5 μL 10 mM compound and 5 μL DMSO), followed by 1:3 serial dilutions of compound in DMSO performed by diluting 3 μL of higher concentration compound solution serially into 6 μL DMSO to give 3-fold dilutions. Next, 3 μL of each compound solution at each concentration was transferred to 750 μL of Growth Medium. In “DMSO alone” control 3 μL of DMSO alone was added to 750 μL of Growth Medium.
After the diluted compounds were mixed well in the Growth Medium, 50 μL of each compound solution in DMSO/Growth Medium was transferred to each well of the 96-plate containing cells in 50 μL of Growth Medium/Nocodazole.
The cells and compounds were incubated for 120 minutes at 37° C., in an atmosphere containing 5% CO2.
3. Fixation and Permeabilization of the Cells
After the cells were incubated with compounds, the cells were spun down at 1,000 rpm for 5 minutes at 4° C. and supernatants were removed by flicking the plates. Cells were then washed with 200 μl of ice cold PBS, spun down again and supernatants removed. Cells were then fixed and permeabilized by addition of 100 μL/well of Fixation and Permeabilization Solution (1× buffer provided in BD Biosciences Cytofix/Cytoperm™ Fixation/Permeabilization kit, Cat. #554714) and incubation for 20 minutes at room temperature. The fixative was then removed by centrifugation (5 minutes at 2,000 rpm), and plates were flicked to remove the fixative and washed twice, each time with 200 μL/well BD Perm/Wash buffer (10× concentrate provided in BD Biosciences Cytofix/Cytoperm™ Fixation/Permeabilization kit, Cat. #554714, 1× buffer prepared by dilution in distilled H2O).
Cells were spun down at 1,000 rpm for 5 minutes at 4° C. Supernatants were removed by flicking the plates. A solution of a primary antibody specific for cdc25cp-Ser198 was prepared by diluting Rabbit cdc25c (Ser198) antibody (Cell Signaling, #9529L) 1:50 in a Fluorescence Activated Cell Sorting (“FACS”) Buffer (2% FBS in PBS). The cell pellets were resuspended in 50 μL of the primary antibody solution. 50 μL of FACS buffer was added to unstained controls. Staining was allowed to proceed overnight at room temperature.
The plates were then washed by addition of 200 μL of FACS Buffer to each well, were centrifuged and the supernatant was removed. […]

PLK1 [2] = molecular target: T1, PLK1; assay: In vitro PLK1 ELISA assay (biochemical); design: purchased Cell Signalling 7728; settings: for IC50: ELISA, CHK2-derived peptide substrate, read-out: PLK1 IC50 (μM) biochemical assay
How it was run: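 Commercial PLK1 phosphorylates neutravidin-captured biotinylated CHK2 peptide for 45 min at room temperature in HEPES pH 7.2 with Mg2+/Mn2+/DTT, compounds at 10 μM to 0.005 μM. Phospho-CHK2(T68) antibody plus HRP secondary gives chemiluminescent read-out used for IC50.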

[3] = read-out: IC50 in biochemical in vitro PLK1 ELISA assay (less than 10 μM)
[4] = read-out: IC50 in biochemical ELISA assay (less than 0.01 μM)

T1 sequence (P53350 whole entry): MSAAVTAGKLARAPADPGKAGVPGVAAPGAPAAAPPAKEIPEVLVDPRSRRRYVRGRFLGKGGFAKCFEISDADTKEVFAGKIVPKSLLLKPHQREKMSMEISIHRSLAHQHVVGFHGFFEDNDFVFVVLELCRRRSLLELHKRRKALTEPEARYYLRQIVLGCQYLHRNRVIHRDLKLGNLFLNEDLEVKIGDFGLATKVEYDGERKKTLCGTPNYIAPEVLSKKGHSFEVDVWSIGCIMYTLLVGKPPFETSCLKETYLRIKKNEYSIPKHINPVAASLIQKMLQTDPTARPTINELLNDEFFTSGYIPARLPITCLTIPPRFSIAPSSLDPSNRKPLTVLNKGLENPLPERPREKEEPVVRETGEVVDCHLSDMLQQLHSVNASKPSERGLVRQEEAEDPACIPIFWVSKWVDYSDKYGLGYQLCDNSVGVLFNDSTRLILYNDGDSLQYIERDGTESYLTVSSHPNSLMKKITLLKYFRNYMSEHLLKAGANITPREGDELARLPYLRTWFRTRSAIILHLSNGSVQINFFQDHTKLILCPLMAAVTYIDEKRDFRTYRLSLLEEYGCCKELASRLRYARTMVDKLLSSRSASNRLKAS

| SMILES | IC50 (PLK1 [1]) [µM] | IC50 (PLK1 [2]) [µM] | pIC50 (PLK1 [2]; [3]) | pIC50 (PLK1 [2]; [4]) |
| --- | --- | --- | --- | --- |
| CCCN1C(=O)COc2ccc(Nc3nc(Nc4ccc(N5CC6CC5CN6S(C)(=O)=O)c(C)c4)ncc3C)nc21 (stereo not shown) [compound 32, 6-(5-methyl-2-(3-methyl-4-(5-(methylsulfonyl)-2,5-diazabicyclo[2.2.1]heptan-2-yl)phenylamino)pyrimidin-4-ylamino)-4-propyl-2H-pyrido[3,2-b][1,4]oxazin-3(4H)-one] | 0.5 to 5 | 0.5 to 5 | > 5.00 |  |
| CCCN1CCOc2ccc(Nc3nc(Nc4ccc(N5CC6CC5CN6S(C)(=O)=O)c(C)c4)ncc3C)nc21 (stereo not shown) [compound 33, 5-methyl-N2-(3-methyl-4-(5-(methylsulfonyl)-2,5-diazabicyclo[2.2.1]heptan-2-yl)phenyl)-N4-(4-propyl-3,4-dihydro-2H-pyrido[3,2-b][1,4]oxazin-6-yl)pyrimidine-2,4-diamine] | 0.5 to 5 | < 0.5 | > 5.00 |  |
| CN1CCN(c2ccc(C3CC3)c(Nc3ncc(F)c(Nc4ccc5c(n4)NCCO5)n3)c2)CC1 [compound 34, N2-(2-cyclopropyl-5-(4-methylpiperazin-1-yl)phenyl)-N4-(3,4-dihydro-2H-pyrido[3,2-b][1,4]oxazin-6-yl)-5-fluoropyrimidine-2,4-diamine] | < 0.5 | < 0.5 | > 5.00 |  |
| CCCN1C(=O)COc2ccc(Nc3nc(Nc4ccc(N5CC6CC5CN6C(C)=O)c(C)c4)ncc3F)nc21 (stereo not shown) [compound 35, 6-(2-(4-(5-acetyl-2,5-diazabicyclo[2.2.1]heptan-2-yl)-3-methylphenylamino)-5-fluoropyrimidin-4-ylamino)-4-propyl-2H-pyrido[3,2-b][1,4]oxazin-3(4H)-one] | 0.5 to 5 | < 0.5 | > 5.00 |  |
| Cc1ccc(Nc2ncc(F)c(Nc3ccc4c(n3)NCCO4)n2)cc1N1CC2CC1CN2C (stereo not shown) [compound 36, N4-(3,4-dihydro-2H-pyrido[3,2-b][1,4]oxazin-6-yl)-5-fluoro-N2-(4-methyl-3-(5-methyl-2,5-diazabicyclo[2.2.1]heptan-2-yl)phenyl)pyrimidine-2,4-diamine] | 0.5 to 5 | < 0.5 | > 5.00 | > 8.00 |
| CCCN1CCOc2ccc(Nc3nc(Nc4ccc(N5CC6CC5CN6C(C)=O)c(C)c4)ncc3F)nc21 (stereo not shown) [compound 37, 1-(5-(4-(5-fluoro-4-(4-propyl-3,4-dihydro-2H-pyrido[3,2-b][1,4]oxazin-6-ylamino)pyrimidin-2-ylamino)-2-methyl-phenyl)-2,5-diaza-bicyclo[2.2.1]heptan-2-yl)ethanone] | 0.5 to 5 | 0.5 to 5 | > 5.00 |  |
| CCCN1C(=O)COc2ccc(Nc3nc(Nc4ccc(N5CC6CC5CN6C(C)=O)c(C)c4)ncc3C)nc21 (stereo not shown) [compound 38, 6-(2-(4-(5-acetyl-2,5-diazabicyclo[2.2.1]heptan-2-yl)-3-methylphenyl-amino)-5-methyl-pyrimidin-4-ylamino)-4-propyl-2H-pyrido[3,2-b][1,4]oxazin-3(4H)-one] | 0.5 to 5 | < 0.5 | > 5.00 |  |
| CCCN1CCOc2ccc(Nc3nc(Nc4ccc(N5CC6CC5CN6C(C)=O)c(C)c4)ncc3C)nc21 (stereo not shown) [compound 39, 1-(5-(2-methyl-4-(5-methyl-4-(4-propyl-3,4-dihydro-2H-pyrido[3,2-b][1,4]oxazin-6-ylamino)pyrimidin-2-ylamino)phenyl)-2,5-diazabicyclo[2.2.1]heptan-2-yl)ethanone] | 0.5 to 5 | 0.5 to 5 | > 5.00 |  |
| CN1CC2CC1CN2c1cccc(Nc2ncc(F)c(Nc3ccc4c(n3)NC(=O)CO4)n2)c1 (stereo not shown) [compound 41, 6-(5-fluoro-2-(3-(5-methyl-2,5-diaza-bicyclo[2.2.1]heptan-2-yl)phenylamino)pyrimidin-4-ylamino)-2H-pyrido[3,2-b][1,4]oxazin-3(4H)-one] | < 0.5 | < 0.5 | > 5.00 |  |
| CN1CC2CC1CN2c1cccc(Nc2ncc(F)c(Nc3ccc4c(n3)NCCO4)n2)c1 (stereo not shown) [compound 42, N4-(3,4-dihydro-2H-pyrido[3,2-b][1,4]oxazin-6-yl)-5-fluoro-N2-(3-(5-methyl-2,5-diazabicyclo[2.2.1]heptan-2-yl)phenyl)pyrimidine-2,4-diamine] | < 0.5 | < 0.5 | > 5.00 | > 8.00 |
| CC(C)c1ccc(N2CCN(C)CC2)cc1Nc1ncc(F)c(Nc2ccc3c(n2)NC(=O)CO3)n1 [compound 43, 6-(5-fluoro-2-(2-isopropyl-5-(4-methylpiperazin-1-yl)phenylamino)pyrimidin-4-ylamnino)-2H-pyrido[3,2-b][1,4]oxazin-3(4H)-one] | < 0.5 | < 0.5 | > 5.00 |  |
| CC(C)c1cc(Nc2ncc(F)c(Nc3ccc4c(n3)NC(=O)CO4)n2)cc(N2CCN(C)CC2)c1 [compound 44, 6-(5-fluoro-2-(3-isopropyl-5-(4-methylpiperazin-1-yl)phenylamino)pyrimidin-4-ylamino)-2H-pyrido[3,2-b][1,4]oxazin-3(4H)-one] | ≥ 10 | < 0.5 | > 5.00 |  |
| CCOc1ccc(N2CCN(C)CC2)cc1Nc1ncc(F)c(Nc2ccc3c(n2)NCCO3)n1 [compound 45, N4-(3,4-dihydro-2H-pyrido[3,2-b][1,4]oxazin-6-yl)-N2-(2-ethoxy-5-(4-methylpiperazin-1-yl)phenyl)-5-fluoro-pyrimidine-2,4-diamine] | < 0.5 | < 0.5 | > 5.00 |  |
| CC(C)c1cc(Nc2ncc(F)c(Nc3ccc4c(n3)NCCO4)n2)cc(N2CCN(C)CC2)c1 [compound 46, N4-(3,4-dihydro-2H-pyrido[3,2-b][1,4]oxazin-6-yl)-5-fluoro-N2-(3-isopropyl-5-(4-methylpiperazin-1-yl)phenyl)pyrimidine-2,4-diamine] | 0.5 to 5 | < 0.5 | > 5.00 |  |
| CN1CCN(c2cc(Nc3ncc(F)c(Nc4ccc5c(n4)NC(=O)CO5)n3)cc(OC(C)(C)C)c2)CC1 [compound 47, 6-(2-(3-tert-butoxy-5-(4-methylpiperazin-1-yl)phenylamino)-5-fluoro-pyrimidin-4-ylamino)-2H-pyrido[3,2-b][1,4]oxazin-3(4H)-one] | < 0.5 | < 0.5 | > 5.00 |  |
| CN1CCN(c2cc(Nc3ncc(F)c(Nc4ccc5c(n4)NCCO5)n3)cc(C3CC3)c2)CC1 [compound 48, N2-(3-cyclopropyl-5-(4-methylpiperazin-1-yl)phenyl)-N4-(3,4-dihydro-2H-pyrido[3,2-b][1,4]oxazin-6-yl)-5-fluoropyrimidine-2,4-diamine] | < 0.5 | < 0.5 | > 5.00 | > 8.00 |
| CCOc1ccc(N2CCN(C)CC2)cc1Nc1ncc(F)c(Nc2ccc3c(n2)NC(=O)CO3)n1 [compound 49, 6-(2-(2-ethoxy-5-(4-methylpiperazin-1-yl)phenylamino)-5-fluoro-pyrimidin-4-ylamino)-2H-pyrido[3,2-b][1,4]oxazin-3(4H)-one] | < 0.5 | < 0.5 | > 5.00 | > 8.00 |

Reference: patent publication US9040527B2, “Pyrimidinediamine kinase inhibitors” (Rigel Pharmaceuticals, Inc., priority 2008, dated 2015)
